Molecular target: Tumor necrosis factor (Homo sapiens, UniProt P01375)
Assay: Inhibition of TNFalpha (unknown origin) in HEK-Blue-hTLR2 cells assessed as inhibition of TNFalpha-induced NFkappaB activation pretreated for 2 hrs followed by incubation with TNFalpha for 18 hrs by SEAP assay

Tumor necrosis factor, sequence (P01375 whole entry): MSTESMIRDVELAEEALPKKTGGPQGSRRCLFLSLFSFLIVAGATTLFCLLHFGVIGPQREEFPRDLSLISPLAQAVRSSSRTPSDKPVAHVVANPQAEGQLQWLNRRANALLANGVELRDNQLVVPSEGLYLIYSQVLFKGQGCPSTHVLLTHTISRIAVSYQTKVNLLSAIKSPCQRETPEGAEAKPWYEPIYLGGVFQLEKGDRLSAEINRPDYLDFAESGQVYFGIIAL

Row | SMILES | IC50 [µM]
1 | CCCCCCCCCCCCCCOCC(CNC(=O)CC[C@H](NC(=O)OCC1c2ccccc2-c2ccccc21)C(=O)O)OCCCCCCCCCCCCCC (some centres not stated) | > 30
2 | CCCCCCCCCCCCCCOCC(CNC(=O)[C@H](CCCCN)NC(=O)OCC1c2ccccc2-c2ccccc21)OCCCCCCCCCCCCCC (some centres not stated) | > 30
3 | CCCCCCCCCCCCCCOCC(CNC(=O)C(CC1CCNCC1)NC(=O)OCC1c2ccccc2-c2ccccc21)OCCCCCCCCCCCCCC (configuration not stated) | > 30
4 | CCCCCCCCCCCCCCOCC(CNC(=O)[C@H]1CCCN1)OCCCCCCCCCCCCCC (some centres not stated) | > 30
5 | CCCCCCCCCCCCCCOCC(CNC(=O)CCN)OCCCCCCCCCCCCCC (configuration not stated) | > 30
6 | CCCCCCCCCCCCCCOCC(CNC(=O)[C@@H](N)CCCCN)OCCCCCCCCCCCCCC (some centres not stated) | > 30
7 | CCCCCCCCCCCCCCOCC(CNC(=O)[C@H](CCCCN)NC(C)=O)OCCCCCCCCCCCCCC (some centres not stated) | > 30
8 | CCCCCCCCCCCCCCOCC(CNC(=O)CCCCCN)OCCCCCCCCCCCCCC (configuration not stated) | > 30
9 | CCCCCCCCCCCCCCOCC(CNC(=O)[C@H]1CC[C@H](N)CC1)OCCCCCCCCCCCCCC (some centres not stated) | > 30
10 | CCCCCCCCCCCCCCOCC(CNC(=O)[C@@H](CCCCN)NC(=O)OCc1ccccc1)OCCCCCCCCCCCCCC (some centres not stated) | > 30
11 | CCCCCCCCCCCCCCOCC(CNC(=O)C1(NC(=O)OCc2ccccc2)CCNCC1)OCCCCCCCCCCCCCC (configuration not stated) | > 30
12 | CCCCCCCCCCCCCCOCC(CNC(=O)[C@H](CCCCN)NCc1ccc(F)cc1)OCCCCCCCCCCCCCC (some centres not stated) | > 30
13 | CCCCCCCCCCCCCCOCC(CNC(=O)[C@H](CCCCN)NCc1ccc(-c2ccccc2)cc1)OCCCCCCCCCCCCCC (some centres not stated) | > 30
14 | CCCCCCCCCCCCCCOCC(CNC(=O)[C@@H](CCCCN)NCc1ccccc1)OCCCCCCCCCCCCCC (some centres not stated) | > 30
15 | CCCCCCCCCCCCCCOCC(CNC(=O)[C@H](CCCCN)NCc1ccccc1)OCCCCCCCCCCCCCC (some centres not stated) | > 30
16 | CCCCCCCCCCCCCCOCC(CNC(=O)c1cccc(N2CCNCC2)c1)OCCCCCCCCCCCCCC (configuration not stated) | > 30
17 | CCCCCCCCCCCCCCOCC(CNC(=O)c1cccc(C2CCNCC2)c1)OCCCCCCCCCCCCCC (configuration not stated) | > 30

Reference: BindingDB's records for doi:10.1016/j.bmcl.2021.127861 (Neuropore Therapies, 2021)
